According to BigSolDB 2.1:

Nc1cccc2ccccc12
solubility (mole fraction)
Settings	273.15 K	278.15 K	283.15 K	288.15 K	293.15 K	298.15 K	303.15 K	308.15 K
in acetone	0.552	0.59	0.636	0.684	0.724	0.778	0.839	0.898
in acetonitrile	0.527	0.572	0.619	0.658	0.708	0.766	0.829	0.878
in cyclohexane	–	0.00758	0.00992	0.014	0.0185	0.0263	0.0364	0.0621
in ethanol	0.133	0.176	0.231	0.323	0.431	0.555	0.698	0.833
in ethyl acetate	0.49	0.528	0.57	0.611	0.66	0.728	0.788	0.863
in isobutanol	0.0584	0.0819	0.118	0.157	0.251	0.382	0.585	0.841
in isopropanol	0.0524	0.0814	0.123	0.198	0.294	0.461	0.637	0.845
in methanol	0.192	0.245	0.296	0.375	0.477	0.591	0.703	0.845
in n-butanol	0.112	0.145	0.194	0.247	0.353	0.487	0.664	0.84
in n-butyl acetate	0.441	0.485	0.532	0.585	0.645	0.706	0.777	0.849
in n-heptane	0.00549	0.0073	0.00879	0.0115	0.0155	0.0205	0.026	0.0346
in n-propanol	0.0925	0.133	0.181	0.256	0.365	0.512	0.669	0.838
